From patent US4228304A, “Novel cyclohexanecarboxylic acid and its derivatives” (Hisamitsu Pharmaceutical Co. Inc., priority 1977, dated 1980)

Columns and labels:
[1] = system: passive cutaneous anaphylaxis in rat; test: Homologeous passive cutaneous anaphylaxis in rat; type: in vivo, rat (Wistar strain); conditions: 100 mg/kg, orally; exuded pigment vs control
Method: (2) Homologeous passive cutaneous anaphylaxis in rat Each test compound suspended in 0.5% tragacanth gum-distilled water was administered orally to a group of five male Wistar strain rats (body weight 150-200 g). After one hour 0.1 ml of 5% anti-Dinitrophinol conpled Ascaris rat IgE serum-physiological sodium chloride solution was injected intradermally to dorsum of the rat. […] The animals were sacrificed by decapitation 30 minutes after the injection. Thereafter the skin of the animals were removed and the amount of the pigment exuded into the inflamed skin was determined. The percent inhibitions were calculated by the ratio of the amounts of exuded pigments to the control.

Acute toxicity (rat) = conditions: in vivo
Method: (§1) Each test compound suspended in 0.5% tragacanth gum-saline was administered orally, subcutaneously or intraperitoneally to animals ddY strain mouse and Wistar strain rats. The 50% lethal dose and the 95% confidence limit were calculated by Litchfield-Wilcoxon's method from the death of animals in 3 weeks following administration.

Acute toxicity (rabbit) = conditions: in vivo, po; female rabbit
dog = test: Acute toxicity (dog); type: in vivo; conditions: female dog, p.o.; 30240 min
Acute toxicity (dog) = type: in vivo; conditions: in vivo, po; male dog
[2] = system: Picryl Chloride induced contact dermatitis; test: Picryl Chloride induced contact dermatitis; type: in vivo, mouse (ddY strain); conditions: Mus musculus, po; 100 mg/kg, orally; ear swelling 24 hours after second challenge
Method: (3) Picryl Chloride induced contact dermatitis
At first 0.1 ml of 7% picryl chloride-ethanol solution was applied to skin of the depilated abdomens (area 2.5×15 mm) of ddY-strain male mice (body weight 20-22 g). After one week each 0.02 ml of 1% picryl chloride-olive oil solution was applied topically to the ears of the mouse. […] After three days 0.1 ml of 7% picryl chloride-ethanol solution was applied again to the depilated abdomens of the mice. After one week, each 0.02 ml of 1% picryl chloride-olive oil solution per ear were applied topically to the bilateral ears, and at same time, the test compounds were administered orally. Immediately before and 24 hours after the second challenge, the thickness of the ears was measured and the swelling was calculated. The percent inhibitions were calculated by the ratio of the each swelling to the control.

[3] = system: lung fragment of guinea pig; test: Mediator (histamine) release on lung fragment of guinea pig; type: cell-based, guinea pig (Hartley strain); conditions: 10^-4 g/ml
Method: (4) Mediator release on lung fragment of guinea pig.
A group of Hartley strain male guinea pigs (body weight 250-300 g) were administered intraperitoneally anti-BPO-BGG IgE serum. The animals were sacrificed by decapitation, and those sensitized lungs were isolated for use. […] Following 10 minute incubation, the amount of the released histamine were determined by bioassay.

[4] = system: rat adjuvant polyarthritis; test: Effect on rat adjuvant polyarthritis; type: in vivo, rat (Sprague Dawley strain); conditions: oral daily: Compound No. 1 200 mg/kg, Ibuprofen 50 mg/kg, Prednisolone 0.5 mg/kg
Method: (5) Effect on rat adjuvant polyarthritis
A group of eight to ten male Sprague Dawley strain rats (body weight 240-280 g) were used. 0.1 ml of Complete Freuind's adjuvant (CFA, Mycobacterium butyricum, 100 mg/10 cc) was injected intradermally to the right hind sole.

Acute toxicity (mouse) = conditions: in vivo
Method: as §1

CC(C)CCC[C@H]1CC[C@@](C)(C(=O)O)CC1 [Compound No. 1, cis-4-isohexyl-1-methylcyclohexanecarboxylic acid]
Inhibition [1]: 28%
LD50 at 504 h (Acute toxicity (rat); ip, female rat): 1690 mg/kg
LD50 at 504 h (Acute toxicity (rat); ip, male rat): 2070 mg/kg
LD50 at 504 h (Acute toxicity (rat); po, female rat): > 10000 mg/kg
LD50 at 504 h (Acute toxicity (rat); po, male rat): > 10000 mg/kg
LD50 at 504 h (Acute toxicity (rat); sc, female rat): > 10000 mg/kg
LD50 at 504 h (Acute toxicity (rat); sc, male rat): > 10000 mg/kg
LD50 at 504 h (Acute toxicity (rabbit)): > 6000 mg/kg
LD50 (dog): > 5000 mg/kg
LD50 at 504 h (Acute toxicity (dog)): > 5000 mg/kg
inhibition in vivo at 100 mg/kg [2]: 49%
inhibition (released histamine) [3]: 24.2%
Swelling percent of left hind paw (non-treatment of CFA) ([4]; day 0): -1.3±1.8%
Swelling percent of right hind paw (treatment of CFA) ([4]; day 0): 118.1± 5.0%
Swelling percent of left hind paw (non-treatment of CFA) ([4]; day 1): -3.0±1.2%
Swelling percent of right hind paw (treatment of CFA) ([4]; day 1): 100.0± 5.3%
Swelling percent of left hind paw (non-treatment of CFA) ([4]; day 4): -0.8±2.0%
Swelling percent of right hind paw (treatment of CFA) ([4]; day 4): 255.4±13.8%
Swelling percent of left hind paw (non-treatment of CFA) ([4]; day 7): 4.5±3.3%
Swelling percent of right hind paw (treatment of CFA) ([4]; day 7): 216.3±12.8%
Swelling percent of left hind paw (non-treatment of CFA) ([4]; day 10): 11.8±2.4%
Swelling percent of right hind paw (treatment of CFA) ([4]; day 10): 173.8± 7.1%
Swelling percent of left hind paw (non-treatment of CFA) ([4]; day 14): 13.3±1.6%
Swelling percent of right hind paw (treatment of CFA) ([4]; day 14): 169.5± 8.0%
Swelling percent of left hind paw (non-treatment of CFA) ([4]; day 17): 13.2±1.7%
Swelling percent of right hind paw (treatment of CFA) ([4]; day 17): 166.0± 8.6%
Swelling percent of left hind paw (non-treatment of CFA) ([4]; day 21): 8.5±2.0%
Swelling percent of right hind paw (treatment of CFA) ([4]; day 21): 163.0±10.5%
LD50 at 504 h (Acute toxicity (mouse); ip, female mouse): 998 mg/kg
LD50 at 504 h (Acute toxicity (mouse); ip, male mouse): 1110 mg/kg
LD50 at 504 h (Acute toxicity (mouse); po, female mouse): 6390 mg/kg
LD50 at 504 h (Acute toxicity (mouse); po, male mouse): 5950 mg/kg
LD50 at 504 h (Acute toxicity (mouse); sc, female mouse): > 10000 mg/kg
LD50 at 504 h (Acute toxicity (mouse); sc, male mouse): > 10000 mg/kg
